According to patent US5543530A, “4-arylisoindole analgesics” (Ortho Pharmaceutical Corporation, priority 1993, dated 1996):

Test system: Acetylcholine-Bromide Induced Abdominal Constriction
Experiment: Mouse Acetylcholine Bromide-Induced Abdominal Constriction Assay
Assay type: in vivo
Details: for ED50: Mus musculus, 0.5 h, po, 5.5 mg/kg i.p. acetylcholine bromide 30 minutes after drug, read-out: ED50 (dose which would produce 50% analgesia)
Text: Mouse Acetylcholine Bromide-Induced Abdominal Constriction Assay
The mouse acetylcholine-induced abdominal constiction assay, as described by Collier et al. in Brit. J. Pharmacol. Chem. Ther., 32:295-310, 1968, with minor modifications was used to assess analgesic potency of the compounds of formula (I). […] The mice were then placed in groups of three into glass bell jars and observed for a ten minute observation period for the occurrence of an abdominal constriction response (defined as a wave of constriction and elongation passing caudally along the abdominal wall, accompanied by a twisting of the trunk and followed by extension of the hind limbs). The percent inhibition of this response to a nociceptive stimulus (equated to % analgesia) was calculated as follows: The % Inhibition of response, i.e., % analgesia is equal to the difference between the No. of control animals response and the No. of drug-treated animals response times 100 divided by the No. of control animals responding.
At least 15 animals were used for control and in each of the drug treated groups. At least three doses were used to determine each dose response curve and ED50 (that dose which would produce 50% analgesia). The ED50 values and their 95% fiducial limits were determined by a computer assisted probit analysis.

SMILES | ED50 | also measured
CN1C[C@@H]2CCC[C@@](O)(c3cccs3)[C@@H]2C1 (relative stereo) [Cp-1] | 7.3 mg/kg | 
COc1ccc([C@]2(O)CCC[C@H]3CN(C)C[C@H]32)cc1 (relative stereo) [Cp-3] |  | % Inhibition (@30 mpk/po): 46-93%
CN1C[C@@H]2CCC[C@@](O)(c3ccc(F)cc3)[C@@H]2C1 (relative stereo) [Cp-4] | 0.76 mg/kg | 
CN1C[C@@H]2CCC[C@@](O)(c3cccc4ccccc34)[C@@H]2C1 (relative stereo) [Cp-5] | 16.6 mg/kg | 
CN1C[C@@H]2CCC[C@@](O)(c3cccnc3)[C@@H]2C1 (relative stereo) [Cp-6] | 30.4 mg/kg | 
CN1C[C@@H]2CCC[C@@](O)(c3cccc(F)c3)[C@@H]2C1 (relative stereo) [Cp-7] | 5.38 mg/kg | 
CN1C[C@@H]2CCC[C@@](O)(c3cccc(C(F)(F)F)c3)[C@@H]2C1 (relative stereo) [Cp-8] | 2.08 mg/kg | 
CN1C[C@@H]2CCC[C@@](O)(c3ccccn3)[C@@H]2C1 (relative stereo) [Cp-9] | 15.4 mg/kg | 
CN1C[C@@H]2CCC[C@@](O)(c3ccc(Cl)cc3Cl)[C@@H]2C1 (relative stereo) [Cp-11] | 1.36 mg/kg | 
COc1cccc([C@]2(O)CCC[C@H]3CN(Cc4ccccc4)C[C@H]32)c1 (relative stereo) [Cp-13] |  | % Inhibition (@30 mpk/sc): 75%
CN1C[C@@H]2CCC[C@@](O)(c3ccccc3)[C@@H]2C1 (relative stereo) [Cp-16] | 3.9 mg/kg | 
O[C@@]1(c2cccc(C(F)(F)F)c2)CCC[C@H]2CN(Cc3ccccc3)C[C@H]21 (relative stereo) [Cp-18] |  | % Inhibition (@30 mpk/po): 71%
O[C@@]1(c2cccc(C(F)(F)F)c2)CCC[C@H]2CNC[C@H]21 (relative stereo) [Cp-19] | 4.2 mg/kg | 
O[C@@]1(c2ccc(C(F)(F)F)cc2)CCC[C@H]2CN(Cc3ccccc3)C[C@H]21 (relative stereo) [Cp-20] | 10.7 mg/kg | 
CN1C[C@@H]2CCC[C@@](O)(c3ccccc3)[C@@H]2C1 (single isomer, unassigned) [Cp-12, (-)-4β-Hydroxy-2-Methyl-4-Phenyl-3aα,7aα-Octahydroisoindole] |  | % Inhibition (@10 mpk/ko (so in the source)): 90%
CN1C[C@@H]2CCC[C@@](O)(c3ccccc3)[C@@H]2C1 (single isomer, unassigned) [Cp-15, (+)-4β-Hydroxy-2-Methyl-4-phenyl-3aα,7aα-octahydroisoindole] |  | % Inhibition (@10 mpk/po): 90%
